# Patent US5955500A (G. D. Searle & Co., priority 1997, dated 1999)
# “And” between values parts separate entries of the source, which are not always exact repeats. Identical values can stand only once. Like-named read-outs stand apart in the source and are kept apart here.
# Columns and labels:
# [1] = pH 5, individual replicates
# canine heart = conditions: for AH time / Heart rate / Mean arterial pressure: mean ± SE
# Method: Fourteen adult mongrel dogs of either sex weighing between 19 and 25 kg were prepared for chronic electrophysiologic investigation by implanting epicardial electrodes and an indwelling aortic catheter. The dogs were fasted overnight and initially anesthetized with halothane on the day of surgery. After tracheal intubation, anesthesia was maintained with isoflurane and oxygen via positive pressure ventilation to keep end tidal carbon dioxide within the normal range. Muscular relaxation was induced by pancuronium. A right thoracotomy was performed in the fifth intercostal space. Three bipolar electrode pairs were sutured to the epicardial surface of the right atrial appendage and on the right and left ventricular apex (FIG. 5). A bipolar electrode was sutured to the right atrium close to the anatomical region of the sinoatrial node. A bipolar plunge electrode was placed into base of the interventricular septum to record a His bundle electrogram. An indwelling arterial catheter was placed into the aorta through the left femoral artery after surgical exposure of the artery at the inner side of the hind limb. All electrode leads were subcutaneously tunneled and exited through the skin between the scapulae. Incisions were closed in anatomic fashion and standard postoperative methods of analgesia were provided with 0.015 mg/kg of buprenorphine (Buprenex®, Reckitt & Colman, Hull, UK) and two times of 25 mg/kg cefazolin (Cefazolin Sodium®, SoloPak Laboratories, Elk Groove Village, Ill.) and dogs were allowed to recover from surgery for a period of seven days prior to testing.
# Electrical signals from the bipolar electrodes, after suitable amplification in a custom built preamplifier (gain 1000), were filtered in a separate custom designed and built common mode rejection amplifier with a bandpass filter of 10-1000 Hz and individually adjusted for signal strength (maximal gain 400). […] Right atrial appendage (RA), right ventricular apex (RVA) and His bundle electrograms (HB) were recorded, simultaneously. […] All measurements of conduction times were made during spontaneous sinus rhythm.
# The His bundle electrode (HBE) was advanced into the base of the interatrial septum from the aortic root. The electrode was advanced from a point located just behind and to the right of the origin of the right coronary artery. The HBE was slowly advanced parallel to the aorta, inferiorly and slightly anteriorly until a well discernible His potential was recorded. AV conduction (AH) interval was measured as the time difference (ms) between the onset of the initial rapid deflection in the RA electrogram to the beginning of the His potential in the HB electrogram. His-ventricular (HV) conduction time interval (ms) was measured from the beginning of the His potential (HBE) to the initial deflection of the QRS complex wave (earliest left ventricular activation) in a simultaneously recorded surface ECG lead II.
# As an indicator of automaticity, sinus node recovery time (SNRT) was determined by pacing the right atrial appendage (30 s at 180 and 200 beats/min at 2 msec pulse duration; 2×threshold). SNRT was measured from the last pacing spike to the first spontaneous atrial activity on the His bundle electrogram after cessation of pacing (ms).
# A timed extrastimulus (S2) was delivered 300 ms after the preceding pacing spike (S1).
# Verapamil was dissolved in 5% dextrose and water ([…]).
# During the postoperative period, each dog was trained to stand quietly in a sling during electrophysiological monitoring. Prior to measurement, electrical signals in each dog were monitored to verify the absence of spontaneous arrhythmias other-than normal respiratory sinus arrhythmias.
# From the resting dog, 5 channel records were obtained at a sampling rate of 1 kHz per channel for 7 min to determine the following conduction intervals: AH, HV, QRS, QT and HR. A corrected QT interval [QTc=QT interval in ms/ (R-R interval in s)^1/2 ] was also calculated.
smiles,measurement,setting,value
COc1ccc(CCN(C)CCCC(C#N)(c2ccc(OC)c(OC)c2)C(C)C)cc1OC (racemic) [compound 90],Concentration in octanol,[1],5.80 µg/mL and 5.29 µg/mL and 4.79 µg/mL
same,Concentration in water,[1],5.90 µg/mL and 6.18 µg/mL and 5.10 µg/mL
COc1ccc(CCN(C)CCCC(C#N)(c2ccc(OC)c(OC)c2)C(C)C)cc1OC (racemic) [90/10S],AH time,"canine heart; 0.1 mg/kg i.v., 0 min",87 ± 6 ms
same,Heart rate,"canine heart; 0.1 mg/kg i.v., 0 min",111 ± 7 beats per min
same,Mean arterial pressure,"canine heart; 0.1 mg/kg i.v., 0 min",94 ± 3 mmHg
same,AH time,"canine heart; 0.1 mg/kg i.v., 1 min",88 ± 6 ms
same,Heart rate,"canine heart; 0.1 mg/kg i.v., 1 min",103 ± 7 beats per min
same,Mean arterial pressure,"canine heart; 0.1 mg/kg i.v., 1 min",97 ± 4 mmHg
same,AH time,"canine heart; 0.1 mg/kg i.v., 2 min",90 ± 6 ms
same,Heart rate,"canine heart; 0.1 mg/kg i.v., 2 min",104 ± 6 beats per min
same,Mean arterial pressure,"canine heart; 0.1 mg/kg i.v., 2 min",99 ± 3 mmHg
same,AH time,"canine heart; 0.1 mg/kg i.v., 3 min",91 ± 6 ms
same,Heart rate,"canine heart; 0.1 mg/kg i.v., 3 min",101 ± 8 beats per min
same,Mean arterial pressure,"canine heart; 0.1 mg/kg i.v., 3 min",99 ± 3 mmHg
same,AH time,"canine heart; 0.1 mg/kg i.v., 4 min",89 ± 6 ms
same,Heart rate,"canine heart; 0.1 mg/kg i.v., 4 min",101 ± 7 beats per min
same,Mean arterial pressure,"canine heart; 0.1 mg/kg i.v., 4 min",100 ± 4 mmHg
same,AH time,"canine heart; 0.1 mg/kg i.v., 5 min",89 ± 7 ms
same,Heart rate,"canine heart; 0.1 mg/kg i.v., 5 min",103 ± 7 beats per min
same,Mean arterial pressure,"canine heart; 0.1 mg/kg i.v., 5 min",99 ± 3 mmHg
same,AH time,"canine heart; 0.2 mg/kg i.v., 0 min",91 ± 7 ms
same,Heart rate,"canine heart; 0.2 mg/kg i.v., 0 min",123 ± 7 beats per min
same,Mean arterial pressure,"canine heart; 0.2 mg/kg i.v., 0 min",94 ± 4 mmHg
same,AH time,"canine heart; 0.2 mg/kg i.v., 1 min",95 ± 8 ms
same,Heart rate,"canine heart; 0.2 mg/kg i.v., 1 min",124 ± 10 beats per min
same,Mean arterial pressure,"canine heart; 0.2 mg/kg i.v., 1 min",98 ± 4 mmHg
same,AH time,"canine heart; 0.2 mg/kg i.v., 2 min",99 ± 8 ms
same,Heart rate,"canine heart; 0.2 mg/kg i.v., 2 min",116 ± 7 beats per min
same,Mean arterial pressure,"canine heart; 0.2 mg/kg i.v., 2 min",99 ± 4 mmHg
same,AH time,"canine heart; 0.2 mg/kg i.v., 3 min",98 ± 7 ms
same,Heart rate,"canine heart; 0.2 mg/kg i.v., 3 min",113 ± 6 beats per min
same,Mean arterial pressure,"canine heart; 0.2 mg/kg i.v., 3 min",99 ± 4 mmHg
same,AH time,"canine heart; 0.2 mg/kg i.v., 4 min",97 ± 7 ms
same,Heart rate,"canine heart; 0.2 mg/kg i.v., 4 min",116 ± 7 beats per min
same,Mean arterial pressure,"canine heart; 0.2 mg/kg i.v., 4 min",100 ± 4 mmHg
same,AH time,"canine heart; 0.2 mg/kg i.v., 5 min",104 ± 7 ms
same,Heart rate,"canine heart; 0.2 mg/kg i.v., 5 min",118 ± 8 beats per min
same,Mean arterial pressure,"canine heart; 0.2 mg/kg i.v., 5 min",101 ± 3 mmHg
same,AH time,"canine heart; 0.4 mg/kg i.v., 0 min",100 ± 9 ms
same,Heart rate,"canine heart; 0.4 mg/kg i.v., 0 min",145 ± 10 beats per min
same,Mean arterial pressure,"canine heart; 0.4 mg/kg i.v., 0 min",83 ± 7 mmHg
same,AH time,"canine heart; 0.4 mg/kg i.v., 1 min",111 ± 10 ms
same,Heart rate,"canine heart; 0.4 mg/kg i.v., 1 min",134 ± 9 beats per min
same,Mean arterial pressure,"canine heart; 0.4 mg/kg i.v., 1 min",89 ± 7 mmHg
same,AH time,"canine heart; 0.4 mg/kg i.v., 2 min",116 ± 10 ms
same,Heart rate,"canine heart; 0.4 mg/kg i.v., 2 min",128 ± 10 beats per min
same,Mean arterial pressure,"canine heart; 0.4 mg/kg i.v., 2 min",90 ± 7 mmHg
same,AH time,"canine heart; 0.4 mg/kg i.v., 3 min",116 ± 12 ms
same,Heart rate,"canine heart; 0.4 mg/kg i.v., 3 min",128 ± 11 beats per min
same,Mean arterial pressure,"canine heart; 0.4 mg/kg i.v., 3 min",90 ± 7 mmHg
same,AH time,"canine heart; 0.4 mg/kg i.v., 4 min",114 ± 9 ms
same,Heart rate,"canine heart; 0.4 mg/kg i.v., 4 min",129 ± 10 beats per min
same,Mean arterial pressure,"canine heart; 0.4 mg/kg i.v., 4 min",93 ± 7 mmHg
same,AH time,"canine heart; 0.4 mg/kg i.v., 5 min",112 ± 10 ms
same,Heart rate,"canine heart; 0.4 mg/kg i.v., 5 min",125 ± 9 beats per min
same,Mean arterial pressure,"canine heart; 0.4 mg/kg i.v., 5 min",92 ± 7 mmHg
same,"Sinus node recovery time (SNRT), significance",canine heart; paced at 200 beats/min,significant decrease
COc1ccc(CCN(C)CCCC(C#N)(c2ccc(OC)c(OC)c2)C(C)C)cc1OC (racemic) [compound 70],Concentration in octanol,[1],4.35 µg/mL and 4.20 µg/mL and 4.24 µg/mL
same,Concentration in water,[1],5.81 µg/mL and 6.00 µg/mL and 5.38 µg/mL
COc1ccc(CCN(C)CCCC(C#N)(c2ccc(OC)c(OC)c2)C(C)C)cc1OC (racemic) [80/20S],AH time,"canine heart; 0.1 mg/kg i.v., 0 min",90 ± 4 ms
same,Heart rate,"canine heart; 0.1 mg/kg i.v., 0 min",125 ± 8 beats per min
same,Mean arterial pressure,"canine heart; 0.1 mg/kg i.v., 0 min",96 ± 3 mmHg
same,AH time,"canine heart; 0.1 mg/kg i.v., 1 min",95 ± 5 ms
same,Heart rate,"canine heart; 0.1 mg/kg i.v., 1 min",126 ± 7 beats per min
same,Mean arterial pressure,"canine heart; 0.1 mg/kg i.v., 1 min",99 ± 3 mmHg
same,AH time,"canine heart; 0.1 mg/kg i.v., 2 min",97 ± 5 ms
same,Heart rate,"canine heart; 0.1 mg/kg i.v., 2 min",119 ± 7 beats per min
same,Mean arterial pressure,"canine heart; 0.1 mg/kg i.v., 2 min",98 ± 3 mmHg
same,AH time,"canine heart; 0.1 mg/kg i.v., 3 min",98 ± 5 ms
same,Heart rate,"canine heart; 0.1 mg/kg i.v., 3 min",115 ± 7 beats per min
same,Mean arterial pressure,"canine heart; 0.1 mg/kg i.v., 3 min",99 ± 3 mmHg
same,AH time,"canine heart; 0.1 mg/kg i.v., 4 min",96 ± 5 ms
same,Heart rate,"canine heart; 0.1 mg/kg i.v., 4 min",116 ± 8 beats per min
same,Mean arterial pressure,"canine heart; 0.1 mg/kg i.v., 4 min",100 ± 3 mmHg
same,AH time,"canine heart; 0.1 mg/kg i.v., 5 min",96 ± 6 ms
same,Heart rate,"canine heart; 0.1 mg/kg i.v., 5 min",123 ± 7 beats per min
same,Mean arterial pressure,"canine heart; 0.1 mg/kg i.v., 5 min",100 ± 3 mmHg
same,AH time,"canine heart; 0.2 mg/kg i.v., 0 min",99 ± 5 ms
same,Heart rate,"canine heart; 0.2 mg/kg i.v., 0 min",136 ± 9 beats per min
same,Mean arterial pressure,"canine heart; 0.2 mg/kg i.v., 0 min",89 ± 2 mmHg
same,AH time,"canine heart; 0.2 mg/kg i.v., 1 min",111 ± 8 ms
same,Heart rate,"canine heart; 0.2 mg/kg i.v., 1 min",134 ± 8 beats per min
same,Mean arterial pressure,"canine heart; 0.2 mg/kg i.v., 1 min",95 ± 4 mmHg
same,AH time,"canine heart; 0.2 mg/kg i.v., 2 min",115 ± 9 ms
same,Heart rate,"canine heart; 0.2 mg/kg i.v., 2 min",129 ± 7 beats per min
same,Mean arterial pressure,"canine heart; 0.2 mg/kg i.v., 2 min",94 ± 4 mmHg
same,AH time,"canine heart; 0.2 mg/kg i.v., 3 min",113 ± 8 ms
same,Heart rate,"canine heart; 0.2 mg/kg i.v., 3 min",124 ± 7 beats per min
same,Mean arterial pressure,"canine heart; 0.2 mg/kg i.v., 3 min",97 ± 4 mmHg
same,AH time,"canine heart; 0.2 mg/kg i.v., 4 min",115 ± 9 ms
same,Heart rate,"canine heart; 0.2 mg/kg i.v., 4 min",125 ± 8 beats per min
same,Mean arterial pressure,"canine heart; 0.2 mg/kg i.v., 4 min",99 ± 3 mmHg
same,AH time,"canine heart; 0.2 mg/kg i.v., 5 min",116 ± 9 ms
same,Heart rate,"canine heart; 0.2 mg/kg i.v., 5 min",123 ± 9 beats per min
same,Mean arterial pressure,"canine heart; 0.2 mg/kg i.v., 5 min",98 ± 3 mmHg
same,AH time,"canine heart; 0.4 mg/kg i.v., 0 min",111 ± 5 ms
same,Mean arterial pressure,"canine heart; 0.4 mg/kg i.v., 0 min",87 ± 3 mmHg
same,Heart rate,"canine heart; 0.4 mg/kg i.v., 0 min, listed as 80/205",155 ± 12 beats per min
same,AH time,"canine heart; 0.4 mg/kg i.v., 1 min",121 ± 4 ms
same,Mean arterial pressure,"canine heart; 0.4 mg/kg i.v., 1 min",95 ± 3 mmHg
same,Heart rate,"canine heart; 0.4 mg/kg i.v., 1 min, listed as 80/205",153 ± 11 beats per min
same,AH time,"canine heart; 0.4 mg/kg i.v., 2 min",123 ± 5 ms
same,Mean arterial pressure,"canine heart; 0.4 mg/kg i.v., 2 min",97 ± 3 mmHg
same,Heart rate,"canine heart; 0.4 mg/kg i.v., 2 min, listed as 80/205",149 ± 10 beats per min
same,AH time,"canine heart; 0.4 mg/kg i.v., 3 min",125 ± 6 ms
same,Mean arterial pressure,"canine heart; 0.4 mg/kg i.v., 3 min",101 ± 3 mmHg
same,Heart rate,"canine heart; 0.4 mg/kg i.v., 3 min, listed as 80/205",147 ± 10 beats per min
same,AH time,"canine heart; 0.4 mg/kg i.v., 4 min",127 ± 6 ms
same,Mean arterial pressure,"canine heart; 0.4 mg/kg i.v., 4 min",103 ± 3 mmHg
same,Heart rate,"canine heart; 0.4 mg/kg i.v., 4 min, listed as 80/205",140 ± 7 beats per min
same,AH time,"canine heart; 0.4 mg/kg i.v., 5 min",129 ± 6 ms
same,Mean arterial pressure,"canine heart; 0.4 mg/kg i.v., 5 min",103 ± 3 mmHg
same,Heart rate,"canine heart; 0.4 mg/kg i.v., 5 min, listed as 80/205",135 ± 9 beats per min
same,Occurrence of second and third degree AV conduction block,"canine heart; 0.4 mg/kg i.v., listed as 80R/20S-verapamil",3 animals
